# Measurements reported in paper PMC4104029, “Mechanism of Action of Compound-13: An α1-Selective Small Molecule Activator of AMPK” (Chemistry & Biology, 2014).
# Assays:
# [1] = tested on: isolated, full-length AMPKα1 and α2 subunits; test: Isolated AMPKα subunit activity assay; format: biochemical, human; conditions: C2 0–1000 nM, conditions as Figure 1B
# Experimental: Supplemental Figure Legends:
# Figure S1, related to Figures 1-3. Subunit composition of AMPK preparations used in this study. (A) Heterotrimeric AMPK complexes (10 ng) produced in both Sf9 (Sigma and Signalchem) and E.coli (in our laboratory) were analysed by Western blotting using isoform specific antibodies. Note that both the α2/α1-HOOK and α2/α1-LOOP chimeras are no longer recognised by the anti-α2 antibody as the epitope has been replaced (see Fig S4). (B) Heterotrimeric AMPK α2/α1 chimeric complexes expressed in E.coli (2 μg) were separated by SDS-PAGE and stained with Coomassie G-250. Arrows indicate the position of the […]
# Figure S2, related to Figure 1. C2 has negligible effects on a panel of 138 protein kinases.
# Kinase inhibition screen was performed by the International Centre for Kinase profiling (Dundee). Assays were performed in duplicate using 10 µM C2 and are representative of two independent screens. Results are shown in rank order as mean % activity compared with controls in the absence of compound ± SD. […]
# Figure S3, related to Figure 2. […] Results are expressed as mean Pi incorporated in nmol.min-1.mg-1 ± SD. […] Results are expressed as fold increase in activity relative to controls in the absence of compound ± SD.
# (E) C2 and AMP displace a GST-AMPKγ2 subunit fusion from ATP-γ-Sepharose. […] The presence of eluted AMPKγ2 was analysed by SDS-PAGE and staining with colloidal Coomassie. […]
# mouse hepatocytes = test: Adenine nucleotide ratios by capillary electrophoresis; format: cell-based; conditions: 1 hr; C13 up to 100 μM
# Experimental: Figure 4 The C2 Prodrug, C13, Potently Activates AMPK in Mouse Primary Hepatocytes (A) Isolated mouse hepatocytes were incubated with vehicle or the indicated concentrations of C13 for 1 hr. AICAR (0.5 mM) was included as a positive control. Cell lysates were analyzed using western blotting with the indicated antibodies. (B) AMPKα1 or AMPKα2 complexes were immunoprecipitated from hepatocyte extracts prepared as described in (A) and assayed for kinase activity using 0.2 mM AMARA and 0.1 mM ATP. Results are expressed as the mean Pi incorporated in picomoles per minute-milligram ± SD. (C) Hepatocytes were stimulated with 30 μM C13 for the indicated times prior to harvesting, with AICAR (0.5 mM, 1 hr) as positive control. Lysates were analyzed using western blotting with the indicated antibodies. (D) Mouse hepatocytes were treated with the indicated compounds for 1 hr, and adenine nucleotide ratios were determined using capillary electrophoresis of perchloric acid extracts. (E) Mouse hepatocytes were preincubated with 30 μM STO-609 for 30 min prior to stimulation with 30 μM C13 for 1 hr or with 1 μM ionomycin for 30 min. Lysates were analyzed using western blotting with the indicated antibodies. (F) Wild-type (LKB1^+/+) or LKB1-null (LKB1^−/−) mouse embryonic fibroblasts were incubated with the indicated concentrations of C13 for 1 hr. AICAR (2 mM) was included as a positive control. Lysates were analyzed using western blotting with the indicated antibodies. Results are representative of three independent experiments. […]
# Isolation of primary hepatocytes. Hepatocytes were isolated from fasted mice by collagenase digestion (Berry and Friend, 1969). Cells were seeded in M199 containing 100 U/ml penicillin G, 100 µg/ml streptomycin, 0.1 % (w/v) BSA, 10 % (v/v) FBS, 10 nM insulin, 200 nM triiodothyronine and 100 nM dexamethasone. […]
# Nucleotide measurements. […] Nucleotides were separated and quantified by capillary electrophoresis using a Beckman P/ACE instrument as previously described (Hawley, et al., 2010).
# whole-body lipogenesis = conditions: among a series of prodrugs; ref Gómez-Galeno et al., 2010; cited from earlier work
SMILES,effect on activity [1],ADP:ATP and AMP:ATP ratios (mouse hepatocytes),inhibition of whole-body lipogenesis (whole-body lipogenesis)
"O=P(O)(O)c1ccc(-c2cc(O)on2)o1 [Compound C2, 5-(5-hydroxyl-isoxazol-3-yl)-furan-2-phosphonic acid]",no effect,–,–
CC(C)C(=O)OCOP(=O)(OCOC(=O)C(C)C)c1ccc(C2=NOC(=O)C2)o1 [Compound C13],–,no detectable changes,most potent inhibition
